Source: patent publication EP4678638A1, “NEW E3 UBIQUITIN LIGASE LIGAND, PROTEIN DEGRADATION AGENT AND USE THEREOF” (priority 2023, dated 2024)

How the values were obtained:
[1] = system: MV-4-11; assay: CCK-8 proliferation, MV-4-11; assay type: cell-based, Human; conditions: Homo sapiens, MV4-11; CCK-8; 72 or 96 hours; read-out: Inhibitory activity (IC50) on tumor cell proliferation, MV-4-11
Procedure, shortened: (§1)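 Tumor cells were cultured at 37°C with 5% CO2, seeded, and after 24h treated with compounds at 10 concentrations starting at 10µM (5-fold serial dilutions).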

[2] = system: Kasumi-1; assay: CCK-8 proliferation, Kasumi-1; assay type: cell-based, Human; conditions: Homo sapiens, Kasumi 1, 72 hours, read-out: Inhibitory activity (IC50) on tumor cell proliferation, Kasumi-1
Experimental: (§2) The tumor cells used herein were cultured in a cell culture medium listed in table A1 at 37°C in an incubator with 5% CO2. Prior to experimentation, all cell lines used were correctly identified by STR profiling, and tested negative for mycoplasma contamination using a mycoplasma detection kit through routine screenings. Table A1. Tumor cells and cell culture medium used in the present disclosure
(§3) IC50 values of the compounds of the present disclosure (including the compounds in Table 1, and compounds of examples) were measured using the Meilun Cell Counting Kit-8 kit from Dalian Meilun Biotech Co., Ltd. Assay details are as follows: tumor cells were seeded in a 96-well plate at a density listed in Table A2. After 24h, 100 µL of the inoculated cells were treated with 0.5µL of the compounds of the present disclosure (including the compounds in Tables 1 and 2, and compounds of examples) at 10 different successively decreasing concentrations (starting at the highest concentration of 10µM; 5-fold serial dilutions). After the cells were treated with the compounds of the present disclosure for a period of time, the cell viability detection reagent was added to the culture medium for cell viability assessment according to the instructions provided with the CCK-8 kit. […] The growth inhibition of the compounds of the present disclosure on cells was plotted by Prism Graphpad software, and the IC50 values of the compounds of the present disclosure were calculated therefrom. […] Seeding protocol and treatment time for tumor cells

[3] = system: MCF7; assay: CCK-8 proliferation, MCF7 (MCF-7); assay type: cell-based; conditions: Homo sapiens, MCF7; CCK-8; read-out: Inhibitory activity (IC50) on tumor cell proliferation, MCF-7
Procedure, shortened: as §1

[4] = system: MDA-MB-231; assay: CCK-8 proliferation, MDA-MB-231; assay type: cell-based; conditions: Homo sapiens, MDA-MB-231; CCK-8; 96 hours; read-out: Inhibitory activity (IC50) on tumor cell proliferation, MDA-MB-231
Experimental: as §2, §3

[5] = molecular target: T1, WEE1 (Homo sapiens, UniProt P30291+Q96SW2); assay: Western blot degradation of WEE1 (hPBMC); assay type: cell-based; conditions: Table D16
T1 construct: evaluate the effects of the compounds of the present disclosure on the expression of target proteins in cells; endogenous in cells; host or cells: hPBMC
Procedure, shortened: (§4)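 After compound exposure, cells were harvested and lysates run on SDS-PAGE, transferred to nitrocellulose and probed with antibodies. Remaining target (%) was computed from band grayscale relative to an internal control protein and normalised; degradation (%) was 100% minus that.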

[6] = molecular target: T2, IKZF1 (Homo sapiens, UniProt Q13422+Q96SW2); assay: Western blot degradation of IKZF1 (hPBMC); assay type: cell-based; conditions: Table D16
T2 construct: evaluate the effects of the compounds of the present disclosure on the expression of target proteins in cells; endogenous in cells; host or cells: hPBMC
Procedure, shortened: as §4

[7] = molecular target: T3, IKZF2 (Homo sapiens, UniProt Q96SW2+Q9UKS7); assay: Western blot degradation of IKZF2 (hPBMC); assay type: cell-based; conditions: Table D16
T3 construct: evaluate the effects of the compounds of the present disclosure on the expression of target proteins in cells; endogenous in cells; host or cells: hPBMC
Procedure, shortened: as §4

[8] = molecular target: T4, IKZF3 (Homo sapiens, UniProt Q96SW2+Q9UKT9); assay: Western blot degradation of IKZF3 (hPBMC); assay type: cell-based; conditions: Table D16
T4 construct: evaluate the effects of the compounds of the present disclosure on the expression of target proteins in cells; endogenous in cells; host or cells: hPBMC
Procedure, shortened: as §4

[9] = molecular target: T5, CK1a (Homo sapiens, UniProt P48729+Q96SW2); assay: Western blot degradation of CK1a (hPBMC); assay type: cell-based; conditions: Table D16
T5 construct: evaluate the effects of the compounds of the present disclosure on the expression of target proteins in cells; endogenous in cells; host or cells: hPBMC
Procedure, shortened: as §4

[10] = molecular target: T6, GSPT1 (Homo sapiens, UniProt P15170+Q96SW2); assay: Western blot degradation of GSPT1 (hPBMC); assay type: cell-based; conditions: Table D16
T6 construct: evaluate the effects of the compounds of the present disclosure on the expression of target proteins in cells; endogenous in cells; host or cells: hPBMC
Procedure, shortened: as §4

T6 sequence (P15170 whole entry): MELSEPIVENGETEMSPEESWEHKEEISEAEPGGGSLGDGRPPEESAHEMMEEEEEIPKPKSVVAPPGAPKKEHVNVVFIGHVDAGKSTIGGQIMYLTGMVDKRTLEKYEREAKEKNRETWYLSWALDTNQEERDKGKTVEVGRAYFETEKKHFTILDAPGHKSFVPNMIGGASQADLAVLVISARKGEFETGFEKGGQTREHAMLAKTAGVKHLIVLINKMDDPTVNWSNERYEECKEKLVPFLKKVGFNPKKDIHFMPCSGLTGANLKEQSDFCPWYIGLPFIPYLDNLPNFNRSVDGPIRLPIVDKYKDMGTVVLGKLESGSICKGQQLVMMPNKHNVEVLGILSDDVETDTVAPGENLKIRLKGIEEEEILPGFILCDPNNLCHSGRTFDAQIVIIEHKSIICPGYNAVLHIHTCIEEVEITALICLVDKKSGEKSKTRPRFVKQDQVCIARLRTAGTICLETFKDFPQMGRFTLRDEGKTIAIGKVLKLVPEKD
T6 sequence (Q96SW2 whole entry): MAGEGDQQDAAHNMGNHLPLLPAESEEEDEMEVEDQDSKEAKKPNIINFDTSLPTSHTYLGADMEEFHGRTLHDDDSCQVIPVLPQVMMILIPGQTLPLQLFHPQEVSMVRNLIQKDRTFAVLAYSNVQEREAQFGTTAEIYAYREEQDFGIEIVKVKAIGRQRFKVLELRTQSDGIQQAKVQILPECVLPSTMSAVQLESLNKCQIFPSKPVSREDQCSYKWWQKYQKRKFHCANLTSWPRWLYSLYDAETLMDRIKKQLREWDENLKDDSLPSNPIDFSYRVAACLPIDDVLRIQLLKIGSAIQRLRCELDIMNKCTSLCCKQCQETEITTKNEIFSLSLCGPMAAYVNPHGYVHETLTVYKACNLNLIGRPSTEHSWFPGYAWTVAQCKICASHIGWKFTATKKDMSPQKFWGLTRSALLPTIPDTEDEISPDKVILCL
T6 sequence (Q16531 whole entry partner): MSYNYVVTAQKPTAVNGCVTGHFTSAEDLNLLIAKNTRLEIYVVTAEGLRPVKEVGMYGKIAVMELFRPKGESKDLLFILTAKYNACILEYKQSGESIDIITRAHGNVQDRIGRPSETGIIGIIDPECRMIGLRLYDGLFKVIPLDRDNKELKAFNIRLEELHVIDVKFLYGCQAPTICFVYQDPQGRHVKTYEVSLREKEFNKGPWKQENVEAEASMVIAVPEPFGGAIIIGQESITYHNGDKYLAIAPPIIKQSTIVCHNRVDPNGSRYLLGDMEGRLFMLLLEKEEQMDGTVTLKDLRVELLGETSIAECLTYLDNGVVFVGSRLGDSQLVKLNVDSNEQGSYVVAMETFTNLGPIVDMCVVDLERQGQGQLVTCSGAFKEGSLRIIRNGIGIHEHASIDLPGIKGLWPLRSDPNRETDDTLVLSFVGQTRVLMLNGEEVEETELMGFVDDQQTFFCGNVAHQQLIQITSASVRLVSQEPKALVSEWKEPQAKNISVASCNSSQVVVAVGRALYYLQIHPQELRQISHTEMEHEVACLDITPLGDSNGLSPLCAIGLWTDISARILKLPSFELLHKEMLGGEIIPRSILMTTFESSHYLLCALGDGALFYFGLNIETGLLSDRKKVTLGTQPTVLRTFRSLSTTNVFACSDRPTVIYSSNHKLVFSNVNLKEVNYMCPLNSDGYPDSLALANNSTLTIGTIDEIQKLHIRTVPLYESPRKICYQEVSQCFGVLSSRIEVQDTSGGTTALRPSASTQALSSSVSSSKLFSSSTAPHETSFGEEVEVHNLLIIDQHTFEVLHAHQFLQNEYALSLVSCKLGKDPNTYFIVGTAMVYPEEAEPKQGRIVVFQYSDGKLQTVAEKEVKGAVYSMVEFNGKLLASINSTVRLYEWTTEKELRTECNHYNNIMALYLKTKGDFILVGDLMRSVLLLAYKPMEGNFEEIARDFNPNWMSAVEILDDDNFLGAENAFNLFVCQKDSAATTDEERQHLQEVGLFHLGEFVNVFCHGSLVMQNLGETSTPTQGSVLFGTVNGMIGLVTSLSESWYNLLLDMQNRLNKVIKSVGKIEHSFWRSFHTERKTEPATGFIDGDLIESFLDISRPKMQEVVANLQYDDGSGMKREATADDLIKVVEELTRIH
T2 sequence (Q13422 whole entry): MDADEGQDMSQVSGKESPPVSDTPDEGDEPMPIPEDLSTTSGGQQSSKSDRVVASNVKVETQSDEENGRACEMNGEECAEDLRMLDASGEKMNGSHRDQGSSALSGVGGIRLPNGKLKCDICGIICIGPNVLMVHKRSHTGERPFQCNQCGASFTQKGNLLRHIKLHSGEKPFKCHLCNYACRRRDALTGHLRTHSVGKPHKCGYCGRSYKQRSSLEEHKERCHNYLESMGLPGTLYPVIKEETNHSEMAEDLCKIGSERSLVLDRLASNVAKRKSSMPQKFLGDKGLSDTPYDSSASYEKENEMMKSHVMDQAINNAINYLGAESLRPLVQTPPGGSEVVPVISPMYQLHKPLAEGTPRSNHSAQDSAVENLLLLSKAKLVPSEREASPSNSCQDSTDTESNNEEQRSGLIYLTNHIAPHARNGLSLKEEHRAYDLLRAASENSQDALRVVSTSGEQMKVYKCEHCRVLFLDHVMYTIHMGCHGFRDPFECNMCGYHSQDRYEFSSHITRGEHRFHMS
T2 sequence (Q96SW2 whole entry): as the sequence (Q96SW2 whole entry) above
T2 sequence (Q16531 whole entry partner): as the sequence (Q16531 whole entry partner) above
T5 sequence (P48729 whole entry): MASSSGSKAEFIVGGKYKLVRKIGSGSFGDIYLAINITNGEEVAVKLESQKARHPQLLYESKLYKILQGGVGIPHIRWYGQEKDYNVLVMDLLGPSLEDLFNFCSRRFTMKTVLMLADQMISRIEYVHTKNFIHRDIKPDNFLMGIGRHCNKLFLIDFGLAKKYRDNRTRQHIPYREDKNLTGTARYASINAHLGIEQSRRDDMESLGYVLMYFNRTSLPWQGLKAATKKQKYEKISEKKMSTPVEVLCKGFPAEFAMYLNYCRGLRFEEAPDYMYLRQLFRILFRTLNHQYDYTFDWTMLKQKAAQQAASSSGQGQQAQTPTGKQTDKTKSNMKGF
T5 sequence (Q96SW2 whole entry): as the sequence (Q96SW2 whole entry) above
T5 sequence (Q16531 whole entry partner): as the sequence (Q16531 whole entry partner) above
T3 sequence (Q9UKS7 whole entry): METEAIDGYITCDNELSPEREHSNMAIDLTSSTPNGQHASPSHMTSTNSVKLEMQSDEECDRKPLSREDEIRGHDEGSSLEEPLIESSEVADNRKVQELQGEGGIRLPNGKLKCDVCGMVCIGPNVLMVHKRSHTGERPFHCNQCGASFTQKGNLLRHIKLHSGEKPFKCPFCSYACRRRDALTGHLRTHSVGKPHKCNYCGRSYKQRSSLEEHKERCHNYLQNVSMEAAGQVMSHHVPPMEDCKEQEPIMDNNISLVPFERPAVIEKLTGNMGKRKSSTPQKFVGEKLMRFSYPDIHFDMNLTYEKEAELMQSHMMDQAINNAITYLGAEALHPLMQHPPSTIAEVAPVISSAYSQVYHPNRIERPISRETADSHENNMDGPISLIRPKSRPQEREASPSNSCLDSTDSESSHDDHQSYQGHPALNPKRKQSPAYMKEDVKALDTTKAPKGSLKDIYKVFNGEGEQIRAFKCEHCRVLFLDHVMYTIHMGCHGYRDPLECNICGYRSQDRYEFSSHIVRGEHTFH
T3 sequence (Q96SW2 whole entry): as the sequence (Q96SW2 whole entry) above
T3 sequence (Q16531 whole entry partner): as the sequence (Q16531 whole entry partner) above
T4 sequence (Q9UKT9 whole entry): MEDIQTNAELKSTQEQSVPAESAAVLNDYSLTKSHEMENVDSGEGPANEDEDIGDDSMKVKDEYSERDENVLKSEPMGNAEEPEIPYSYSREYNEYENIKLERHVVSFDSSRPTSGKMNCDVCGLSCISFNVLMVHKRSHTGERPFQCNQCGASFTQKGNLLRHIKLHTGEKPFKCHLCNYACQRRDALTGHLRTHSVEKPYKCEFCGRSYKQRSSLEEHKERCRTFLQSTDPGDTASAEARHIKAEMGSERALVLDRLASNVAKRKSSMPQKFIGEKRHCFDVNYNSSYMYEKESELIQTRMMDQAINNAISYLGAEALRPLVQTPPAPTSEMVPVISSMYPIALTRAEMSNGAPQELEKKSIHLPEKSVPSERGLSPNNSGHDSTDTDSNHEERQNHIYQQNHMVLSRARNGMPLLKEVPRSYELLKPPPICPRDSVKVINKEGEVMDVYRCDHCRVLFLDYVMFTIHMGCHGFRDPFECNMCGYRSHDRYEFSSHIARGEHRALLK
T4 sequence (Q96SW2 whole entry): as the sequence (Q96SW2 whole entry) above
T4 sequence (Q16531 whole entry partner): as the sequence (Q16531 whole entry partner) above

Row | Structure (SMILES) | IC50 [1] [nM] | IC50 [3] [nM] | IC50 [4] [nM] | IC50 [2] [nM] | Degradation of substrate protein WEE1 (substrate protein remaining %) [5] | Degradation of substrate protein IKZF1 (substrate protein remaining %) [6] | Degradation of substrate protein IKZF2 (substrate protein remaining %) [7] | Degradation of substrate protein IKZF3 (substrate protein remaining %) [8] | Degradation of substrate protein CKla (substrate protein remaining %) [9] | Degradation of substrate protein GSPT1 (substrate protein remaining %) [10]
1 | Cc1cc(S(=O)(=O)N2CCN(Cc3ccc(N4CCC(=O)NC4=O)cc3)CC2)ccc1Nc1ncc(Br)c(Nc2cccc(F)c2C(N)=O)n1 [GT-06831, 2-((5-bromo-2-((4-((4-(4-(2,4-dioxotetrahydropyrimidin-1(2H)-yl)benzyl)piperazin-1-yl)sulfonyl)-2-methylphenyl)amino)pyrimidin-4-yl)amino)-6-fluorobenzamide] | 100 to 500 |  |  | 500 to 1000 |  |  |  |  |  | 
2 | Cc1cc(S(=O)(=O)N2CCN(Cc3cccc(N4CCC(=O)NC4=O)c3)CC2)ccc1Nc1ncc(Br)c(Nc2cccc(F)c2C(N)=O)n1 [GT-06832, 2-((5-bromo-2-((4-((4-(3-(2,4-dioxotetrahydropyrimidin-1(2H)-yl)benzyl)piperazin-1-yl)sulfonyl)-2-methylphenyl)amino)pyrimidin-4-yl)amino)-6-fluorobenzamide] | 100 to 500 |  |  | 500 to 1000 |  |  |  |  |  | 
3 | O=C1CCN(c2cc(CCl)c(F)cn2)C(=O)N1 [GT-07199, 1-(4-(Chloromethyl)-5-fluoropyridin-2-yl)dihydropyrimidine-2,4(1H,3H)-dione] |  | 1000 to 5000 | 1000 to 5000 |  | B (B is defined as substrate protein remaining % > 80%) | B (B is defined as substrate protein remaining % > 80%) | A (A is defined as 0% ≤ substrate protein remaining % ≤ 80%) | A (A is defined as 0% ≤ substrate protein remaining % ≤ 80%) | A (A is defined as 0% ≤ substrate protein remaining % ≤ 80%) | A (A is defined as 0% ≤ substrate protein remaining % ≤ 80%)

More lines, main results first:

Row | IC50 [1] [nM] | IC50 [3] [nM] | IC50 [4] [nM] | Structure (SMILES) | IC50 [2] [nM] | Degradation of substrate protein WEE1 (substrate protein remaining %) [5] | Degradation of substrate protein IKZF1 (substrate protein remaining %) [6] | Degradation of substrate protein IKZF2 (substrate protein remaining %) [7] | Degradation of substrate protein IKZF3 (substrate protein remaining %) [8] | Degradation of substrate protein CKla (substrate protein remaining %) [9] | Degradation of substrate protein GSPT1 (substrate protein remaining %) [10]
4 | 100 to 500 |  |  | Cc1ccsc1C(=O)n1nc(Nc2ccc(S(=O)(=O)N3CCN(Cc4cccc(NC5CCC(=O)NC5=O)c4)CC3)cc2)nc1N (stereo not shown) [GT-06862, 3-((3-((4-((4-((5-amino-1-(3-methylthiophene-2-carbonyl)-1H-1,2,4-triazol-3-yl)amino)phenyl)sulfonyl)piperazin-1-yl)methyl)phenyl)amino)piperidine-2,6-dione] | 100 to 500 |  |  |  |  |  | 
5 |  | 1000 to 5000 | 1000 to 5000 | O=C1CCN(c2cc(CCl)ccn2)C(=O)N1 [GT-07078, 1-(4-(Chloromethyl)pyridin-2-yl)dihydropyrimidine-2,4(1H,3H)-dione] |  | B (B is defined as substrate protein remaining % > 80%) | B (B is defined as substrate protein remaining % > 80%) | B (B is defined as substrate protein remaining % > 80%) | B (B is defined as substrate protein remaining % > 80%) | B (B is defined as substrate protein remaining % > 80%) | A (A is defined as 0% ≤ substrate protein remaining % ≤ 80%)
